# Results published in ChEMBL document CHEMBL3045802, “Synthesis and in vitro antitumor activity of new quinoline, pyrimido[4,5-b]quinoline, [1,2,3]triazino[4,5-b]quinoline, and [1,2,4]triazolo[2,3:3,4]pyrimido[6,5-b]quinoline analogs” (2013).
# Legend:
# Assay type in all cases: functional
# HOP-62 = assay: Cytotoxicity against Homo sapiens (human) HOP62 cells assessed as growth inhibition at 10 uM after 48 hr by coulter counter analysis; conditions: HOP-62, 48 h, read-out: GI
# OVCAR-8 = assay: Cytotoxicity against Homo sapiens (human) OVCAR8 cells assessed as growth inhibition at 10 uM after 48 hr by coulter counter analysis; conditions: OVCAR-8, 48 h, read-out: GI
# [1] = Cytotoxicity against Homo sapiens (human) NCI-ADR-RES cells assessed as growth inhibition at 10 uM after 48 hr by coulter counter analysis; conditions: read-out: GI
# RPMI-8226 = assay: Cytotoxicity against Homo sapiens (human) RPMI8226 cells assessed as growth inhibition at 10 uM after 48 hr by coulter counter analysis; conditions: RPMI-8226, 48 h, read-out: GI
# SR = assay: Cytotoxicity against Homo sapiens (human) SR cells assessed as growth inhibition at 10 uM after 48 hr by coulter counter analysis; conditions: read-out: GI
# SK-MEL-2 = assay: Cytotoxicity against Homo sapiens (human) SK-MEL-2 cells assessed as growth inhibition at 10 uM after 48 hr by coulter counter analysis; conditions: SK-MEL-2, 48 h, read-out: GI
# CAKI-1 = assay: Cytotoxicity against Homo sapiens (human) Caki1 cells assessed as growth inhibition at 10 uM after 48 hr by coulter counter analysis; conditions: CAKI-1, 48 h, read-out: GI
# MCF7 = assay: Cytotoxicity against Homo sapiens (human) MCF7 cells assessed as growth inhibition at 10 uM after 48 hr by coulter counter analysis; conditions: MCF7, 48 h, read-out: GI
# SNB-19 = assay: Cytotoxicity against Homo sapiens (human) SNB19 cells assessed as growth inhibition at 10 uM after 48 hr by coulter counter analysis; conditions: SNB-19, 48 h, read-out: GI
# T47D = assay: Cytotoxicity against Homo sapiens (human) T47D cells assessed as growth inhibition at 10 uM after 48 hr by coulter counter analysis; conditions: read-out: GI
# SK-MEL-28 = assay: Cytotoxicity against Homo sapiens (human) SK-MEL-28 cells assessed as growth inhibition at 10 uM after 48 hr by coulter counter analysis; conditions: SK-MEL-28, 48 h, read-out: GI
# NCI-H226 = assay: Cytotoxicity against Homo sapiens (human) NCI-H226 cells assessed as growth inhibition at 10 uM after 48 hr by coulter counter analysis; conditions: NCI-H226, 48 h, read-out: GI
# IGROV-1 = assay: Cytotoxicity against Homo sapiens (human) IGROV1 cells assessed as growth inhibition at 10 uM after 48 hr by coulter counter analysis; conditions: IGROV-1, 48 h, read-out: GI
# UO-31 = assay: Cytotoxicity against Homo sapiens (human) UO31 cells assessed as growth inhibition at 10 uM after 48 hr by coulter counter analysis; conditions: UO-31, 48 h, read-out: GI
# A498 = assay: Cytotoxicity against Homo sapiens (human) A498 cells assessed as growth inhibition at 10 uM after 48 hr by coulter counter analysis; conditions: A498, 48 h, read-out: GI
# SF-268 = assay: Cytotoxicity against Homo sapiens (human) SF268 cells assessed as growth inhibition at 10 uM after 48 hr by coulter counter analysis; conditions: SF-268, 48 h, read-out: GI
# COLO 205 = assay: Cytotoxicity against Homo sapiens (human) COLO205 cells assessed as growth inhibition at 10 uM after 48 hr by coulter counter analysis; conditions: COLO 205, 48 h, read-out: GI
# M14 = assay: Cytotoxicity against Homo sapiens (human) M14 cells assessed as growth inhibition at 10 uM after 48 hr by coulter counter analysis; conditions: M14, 48 h, read-out: GI
# PC-3 = assay: Cytotoxicity against Homo sapiens (human) PC3 cells assessed as growth inhibition at 10 uM after 48 hr by coulter counter analysis; conditions: PC-3, 48 h, read-out: GI
# HCT-15 = assay: Cytotoxicity against Homo sapiens (human) HCT15 cells assessed as growth inhibition at 10 uM after 48 hr by coulter counter analysis; conditions: HCT-15, 48 h, read-out: GI
# 786-0 = assay: Cytotoxicity against Homo sapiens (human) 786-0 cells assessed as growth inhibition at 10 uM after 48 hr by coulter counter analysis; conditions: 786-0, 48 h, read-out: GI
# OVCAR-4 = assay: Cytotoxicity against Homo sapiens (human) OVCAR4 cells assessed as growth inhibition at 10 uM after 48 hr by coulter counter analysis; conditions: OVCAR-4, 48 h, read-out: GI
# HL-60(TB) = assay: Cytotoxicity against Homo sapiens (human) HL-60(TB) cells assessed as growth inhibition at 10 uM after 48 hr by coulter counter analysis; conditions: HL-60, 48 h, read-out: GI
# HOP-92 = assay: Cytotoxicity against Homo sapiens (human) HOP92 cells assessed as growth inhibition at 10 uM after 48 hr by coulter counter analysis; conditions: HOP-92, 48 h, read-out: GI
# SF-295 = assay: Cytotoxicity against Homo sapiens (human) SF295 cells assessed as growth inhibition at 10 uM after 48 hr by coulter counter analysis; conditions: SF-295, 48 h, read-out: GI
# HCC 2998 = assay: Cytotoxicity against Homo sapiens (human) HCC2998 cells assessed as growth inhibition at 10 uM after 48 hr by coulter counter analysis; conditions: HCC 2998, 48 h, read-out: GI
# OVCAR-5 = assay: Cytotoxicity against Homo sapiens (human) OVCAR5 cells assessed as growth inhibition at 10 uM after 48 hr by coulter counter analysis; conditions: OVCAR-5, 48 h, read-out: GI
# OVCAR-3 = assay: Cytotoxicity against Homo sapiens (human) OVCAR3 cells assessed as growth inhibition at 10 uM after 48 hr by coulter counter analysis; conditions: OVCAR-3, 48 h, read-out: GI
# RXF 393 = assay: Cytotoxicity against Homo sapiens (human) RXF393 cells assessed as growth inhibition at 10 uM after 48 hr by coulter counter analysis; conditions: RXF 393, 48 h, read-out: GI
# UACC-257 = assay: Cytotoxicity against Homo sapiens (human) UACC257 cells assessed as growth inhibition at 10 uM after 48 hr by coulter counter analysis; conditions: UACC-257, 48 h, read-out: GI
# MDA-MB-435 = assay: Cytotoxicity against Homo sapiens (human) MDA-MB-435 cells assessed as growth inhibition at 10 uM after 48 hr by coulter counter analysis; conditions: MDA-MB-435, 48 h, read-out: GI
# HT-29 = assay: Cytotoxicity against Homo sapiens (human) HT-29 cells assessed as growth inhibition at 10 uM after 48 hr by coulter counter analysis; conditions: HT-29, 48 h, read-out: GI
# SF-539 = assay: Cytotoxicity against Homo sapiens (human) SF539 cells assessed as growth inhibition at 10 uM after 48 hr by coulter counter analysis; conditions: SF-539, 48 h, read-out: GI
SMILES,inhibition of growth at 10 µM (HOP-62) [%],inhibition of growth at 10 µM (OVCAR-8) [%],inhibition of growth at 10 µM [1] [%],inhibition of growth at 10 µM (RPMI-8226) [%],inhibition of growth at 10 µM (SR) [%],inhibition of growth at 10 µM (SK-MEL-2) [%],inhibition of growth at 10 µM (CAKI-1) [%],inhibition of growth at 10 µM (MCF7) [%],inhibition of growth at 10 µM (SNB-19) [%],inhibition of growth at 10 µM (T47D) [%],inhibition of growth at 10 µM (SK-MEL-28) [%],inhibition of growth at 10 µM (NCI-H226) [%],inhibition of growth at 10 µM (IGROV-1) [%],inhibition of growth at 10 µM (UO-31) [%],inhibition of growth at 10 µM (A498) [%],inhibition of growth at 10 µM (SF-268) [%],inhibition of growth at 10 µM (COLO 205) [%],inhibition of growth at 10 µM (M14) [%],inhibition of growth at 10 µM (PC-3) [%],inhibition of growth at 10 µM (HCT-15) [%],further results
Oc1ccc(-c2nc3c4c(ncn3n2)NC2=C(CCCC2)C4c2ccc(Cl)cc2)cc1 (centres undefined),16.6,< 10,< 10,13.2,< 10,< 10,24.6,< 10,< 10,15.8,< 10,< 10,< 10,29,25.1,< 10,< 10,< 10,10.4,< 10,inhibition of growth at 10 µM (786-0): < 10%; inhibition of growth at 10 µM (OVCAR-4): < 10%; inhibition of growth at 10 µM (HL-60(TB)): 13.5%; inhibition of growth at 10 µM (HOP-92): 42.1%; inhibition of growth at 10 µM (SF-295): < 10%; inhibition of growth at 10 µM (HCC 2998): < 10%; inhibition of growth at 10 µM (OVCAR-5): < 10%; inhibition of growth at 10 µM (OVCAR-3): < 10%; inhibition of growth at 10 µM (RXF 393): < 10%; inhibition of growth at 10 µM (UACC-257): < 10%; inhibition of growth at 10 µM (MDA-MB-435): < 10%; inhibition of growth at 10 µM (HT-29): < 10%; inhibition of growth at 10 µM (SF-539): < 10%
COc1ccc(C2C3=C(CCCC3)Nc3ncn4nc(-c5ccccc5)nc4c32)cc1OC (centres undefined),< 10,14.7,< 10,10.5,< 10,< 10,13.1,< 10,< 10,26.2,< 10,19.6,< 10,38.7,53.6,< 10,< 10,< 10,19.8,13.1,inhibition of growth at 10 µM (786-0): < 10%; inhibition of growth at 10 µM (OVCAR-4): < 10%; inhibition of growth at 10 µM (HL-60(TB)): < 10%; inhibition of growth at 10 µM (HOP-92): 36.8%; inhibition of growth at 10 µM (SF-295): 29.6%; inhibition of growth at 10 µM (HCC 2998): < 10%; inhibition of growth at 10 µM (OVCAR-5): 11.7%; inhibition of growth at 10 µM (OVCAR-3): < 10%; inhibition of growth at 10 µM (RXF 393): 19.9%; inhibition of growth at 10 µM (UACC-257): < 10%; inhibition of growth at 10 µM (MDA-MB-435): < 10%; inhibition of growth at 10 µM (HT-29): < 10%; inhibition of growth at 10 µM (SF-539): < 10%
COc1ccc(C2C3=C(CCCC3)Nc3ncn4nc(-c5ccc(O)cc5)nc4c32)cc1OC (centres undefined),< 10,< 10,< 10,< 10,< 10,< 10,< 10,< 10,< 10,18.8,< 10,15.3,< 10,29.3,< 10,< 10,< 10,< 10,< 10,< 10,inhibition of growth at 10 µM (786-0): < 10%; inhibition of growth at 10 µM (OVCAR-4): < 10%; inhibition of growth at 10 µM (HL-60(TB)): < 10%; inhibition of growth at 10 µM (HOP-92): 12.2%; inhibition of growth at 10 µM (SF-295): < 10%; inhibition of growth at 10 µM (HCC 2998): < 10%; inhibition of growth at 10 µM (OVCAR-5): < 10%; inhibition of growth at 10 µM (OVCAR-3): < 10%; inhibition of growth at 10 µM (RXF 393): < 10%; inhibition of growth at 10 µM (UACC-257): < 10%; inhibition of growth at 10 µM (MDA-MB-435): < 10%; inhibition of growth at 10 µM (HT-29): < 10%; inhibition of growth at 10 µM (SF-539): < 10%
